Patent publication US10179174B2, “Method for inducing an immune response and formulations thereof” (priority 2011, dated 2019)

Tests used:
BM cells (iDCs) = assay: Flow cytometry phenotyping of BM cells (iDCs) incubated with LEAPS heteroconjugates or LPS; format: cell-based, BALB/c mice; conditions: 14.5 micromoles per well (about 10^6 cells), incubation 24, 48 or 72 hours
CD4 = conditions: literature; cited from earlier work
HSV-1 virus = conditions: Peptide J alone; Taylor et al.; cited from earlier work

lipopolysaccharide [LPS]
upregulation for CD80, CD86 and MHC II compared to untreated cells (BM cells (iDCs)): significant upregulation

DGQEEKAGVVSTGLI (H-DGQEEKAGVVSTGLI-NH2) [CEL-1000, ICBL peptide derived from the β-chain of MHC II]
binding to CD4 (CD4): bind to CD4

DLLKNGERIEKVE [J Peptide, ICBL derived from amino acids 38-50 of the β-2-microglobulin chain of the MHC I molecule]
protection against infection (HSV-1 virus): does not induce protection against infection
